The supplement of paper PMC10307832

Legend:
Experiment in all cases: relative viability (nuclei count vs DMSO), 5 days (fraction); higher = more cells survive
[1] = compound: CN(C)C(=N)NC(=N)N [Metformin] + N=C(N)NC(=N)NCCc1ccccc1 [Phenformin] (partner 250 µM)
Procedure, shortened: (§1)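 Dosing by pin tool came one day after lung cancer cell lines were seeded in 1536-well plates, using either one drug or a fixed anchor-drug dose plus five library-drug doses (not always all listed) in √10 steps. After 5 days, nuclei were counted on 4× images. Relative viability is treated-well nuclei count divided by vehicle-well nuclei count, and values are medians of duplicate plates.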

[2] = compound: CN(C)C(=N)NC(=N)N [Metformin] + O=C(CCCCCCC(=O)Nc1ccccc1)NO [Vorinostat] (partner 1 µM)
Procedure, shortened: as §1

[3] = compound: N#CC1(c2ccc(NC(=O)c3cccnc3NCc3ccncc3)cc2)CCCC1 [Apatinib] + CS(=O)(=O)CCNCc1ccc(-c2ccc3ncnc(Nc4ccc(OCc5cccc(F)c5)c(Cl)c4)c3c2)o1 [Lapatinib] (partner 2 µM)
Procedure, shortened: as §1

[4] = compound: N#CC1(c2ccc(NC(=O)c3cccnc3NCc3ccncc3)cc2)CCCC1 [Apatinib] + O=C(CCCCCCC(=O)Nc1ccccc1)NO [Vorinostat] (partner 1 µM)
Procedure, shortened: as §1

Cell Line	relative viability ([1]; first compound 31.62 µM)	relative viability ([1]; first compound 100 µM)	relative viability ([1]; first compound 316.23 µM)	relative viability ([1]; first compound 1000 µM)	relative viability ([2]; first compound 10 µM)	relative viability ([2]; first compound 31.62 µM)	relative viability ([2]; first compound 100 µM)	relative viability ([2]; first compound 316.23 µM)	relative viability ([2]; first compound 1000 µM)	relative viability ([3]; first compound 0.08 µM)	relative viability ([3]; first compound 0.253 µM)	relative viability ([3]; first compound 0.8 µM)	relative viability ([3]; first compound 2.53 µM)	relative viability ([3]; first compound 8 µM)	relative viability ([4]; first compound 0.08 µM)	relative viability ([4]; first compound 0.253 µM)	relative viability ([4]; first compound 0.8 µM)	relative viability ([4]; first compound 2.53 µM)	relative viability ([4]; first compound 8 µM)	relative viability ([1]; first compound 10 µM)
HCC-15	0.495	0.464	0.426	0.491	0.84	0.849	0.959	0.77	0.95	0.928	0.859	0.808	0.742	0.827	0.9	0.876	0.871	0.887	0.706	
NCI-H1666	0.575	0.569	0.499	0.58	0.979	0.946	1.01	1.06	1.1	0.631	0.726	0.736	0.759	0.682	1.03	1.03	1.05	0.976	0.915	
A-427	0.376	0.325	0.284	0.287	0.848	0.863	0.827	0.819	0.776	1.06	1.1	1.06	0.984	0.982	0.861	0.852	0.855	0.866	0.853	0.32
LU99A	0.816	0.761	0.775	0.919	0.417	0.579	0.411	0.397	0.479	1.02	1.07	0.969	0.821	0.954	0.514	0.589	0.467	0.43	0.354	0.937
NCI-H727	0.707	0.585		0.573	1.1	1.16	1.13		1.13	0.707	0.879	0.9	0.727	0.825	1.18		1.23	1.08	0.999	0.321
EPLC-272H	0.369	0.381	0.262	0.304	0.529	0.352	0.383	0.4	0.579	1.13	0.874	1.11	0.708	1.05	0.532	0.372	0.396	0.346	0.256	0.333
